Test results: patent publication US11001802B2, “Surface of a vessel with polystyrene, nitrogen, oxygen and a static sessile contact angle for attachment and cultivation of cells” (Nunc A/S, priority 2008, dated 2021)

Legend:
[1] = system: dissociated human embryonic stem cells; conditions: from approximately 1%; Wanatabe et al.; cited from earlier work
human ES cell line H1 = test: Attachment, plating efficiency and passage time of H1 human ES cells on surface modified plates (Examples 3, 4); format: cell-based
Experimental: Human ES cells of the line H1, at passage 49 were maintained in MEF conditioned media on Nunclon Delta™ plates treated with a 1:30 dilution of growth factor reduced Matrigel™, prior to study. Cells were dissociated from the surface for passage by 1 mg/ml collagenase dissociation or by manual scraping.
These cells were then seeded onto two untreated wells of the surface modified plates (6-well format). Additionally, one well of each plate was treated with 0.1% xeno-free human gelatin as a control. Cells were also plated directly onto untreated and gelatin-treated wells of Costar™ (cat. no. 3516; Corning, Corning, N.Y.), Falcon™ (cat. no. 351146; Becton Dickinson, Franklin Lakes, N.J.) and Nunclon Delta™ (cat. no. 140675; Thermo Fisher Scientific, Roskilde, Denmark) 6-well plates for negative controls, and plated onto wells treated with 1:30 dilution of growth factor reduced Matrigel™ to provide as positive controls. In all treatments cells were maintained in MEF conditioned media.
Human ES cells of the line H1, at passage 49 were maintained in MEF conditioned media on Nunclon Delta™ plates treated with a 1:30 dilution of growth factor reduced Matrigel™, prior to study. Cells were dissociated from the surface for passage by 1 mg/ml collagenase dissociation.
These cells were then seeded onto untreated wells of surface modified plates (6-well format). […]

human ES cell line H9 = test: Adhesion and growth of H9 cells passaged as single cells on surface modified plates (Examples 6, 8); format: cell-based
Experimental: Human ES cells of the cell line H9 were grown as single cells according to the methods disclosed in US patent Application LFS5163USPSP, assigned to LifeScan Inc. Cells were passaged by treatment with TrypLE™ Express for five minutes at 37° C., and seeded at 10,000 cells/cm^2 substrate surface.
Initial passaging of H9 human ES cells onto surface modified plates. Adhesion is improved with continuous 10 μM of Y-27632. This is true for the four surface modified plates tested: 2, 3, 4 and 13.
The role of Y-27632 in human ES cell adhesion and cell growth was studied in relation to the surface modified plates. H9 human ES cells were passaged 38 times with collagenase and 50 times with TrypLE™ Express followed by seeding onto Surfaces modified plates 3 or 4 (naïve cells). Alternatively H9 human ES cells passaged 38 times with collagenase and 38 times with Triple Express followed by 9 passages on surface modified plate 3 (Surface 3, acclimated cells), or surface modified plate 4 (Surface 4, acclimated cells). Cells were seeded at a density of 10^4/cm^2 in MEF conditioned media and grown for two days with or without the presence of 10 μM of Y-27632. […] Surface modified plate 4 improved attachment and/or growth of acclimated human ES cells. The cells were followed for a total of 4 days (FIGS. 19 and 20).

HEK293 cells [2] = test: HEK293 cell attachment, number of viable cells by LDH activity (Example 19); format: cell-based, human; conditions: Surface 4 and CellBIND surface, 2.0 and 5.0 μM
Excerpt: Human embryonic kidney cells 293 (HEK293, ECACC no. 85120602) were maintained in Eagle's Minimum Essential Medium (EMEM; Lonza, Verviers, Belgium) containing 10% fetal bovine serum (FBS; Lonza). The cells were adapted to Pro293a-CDM medium (Lonza), a chemically defined, serum-free medium optimized for cultivation of adherent HEK293, by gradually and over several passages using the sequential ratios of 3:1, 1:1, 1:3, 1:7, and finally 0:1 of serum-supplemented EMEM and Pro293a-CDM medium. For maintenance and adaptation, HEK293 cells were seeded at 2.0×10^4 cells/cm^2 in 75-cm^2 flasks with Nunclon Delta™ surface (Thermo Fisher Scientific, Roskilde, Denmark) and passaged at 70-80%/confluence using Trypsin/EDTA for dissociation.
Another 100 μl of Pro293a-CDM medium with HEK293 cells was added to the wells (4.0×10^4 cells/cm^2). […]
The number of viable cells in the wells was then determined using a lactate dehydrogenase (LDH) activity kit from Roche, Switzerland. […] The reaction was stopped by adding 50 μl of 1.0 M HCl, and the absorbance at 490 nm was measured in a microplate reader (Genios Pro; Tecan, Austria). The number of cells was calculated using the A490 values from these samples and from standards containing LDH from a known number of cells. […]

HEK293 cells [3] = test: HEK293 growth over three passages, total cell number (Example 22); format: cell-based, human; conditions: Surface 4 and Nunclon Delta surface; 2.5 μM Y-27632
Experimental: EMEM (500 μl) supplemented with 10% FBS containing 5.0 μM Y-27632 was dispensed in wells of Multidish 24-well plates with Surface 4 or Nunclon Delta™ surface. Another 500 μl of EMEM supplemented with 10% FBS and containing HEK293 cells was added to the wells (2.0×10^4 cells/cm^2), and the cultures were incubated at 37° C. in a humidified atmosphere of 5% CO2 in air for 3 days. Cells were passaged by treatment with Trypsin/EDTA (Lonza, Verviers, Belgium) for two minutes at 37° C., and the total cell number was determined using a NucleoCount Cell Counter (Chemometec A/S, Allered, Denmark). For successive passages, HEK293 cells were seeded at 2.0×10^4 cells/cm^2. The growth of HEK293 cells on Surface 4 and Nunclon Delta™ surface was enhanced by the presence of 2.5 μM Y-27632 (FIG. 34).

Compound: C[C@@H](N)[C@H]1CC[C@H](C(=O)Nc2ccncc2)CC1 [Surface Y-27632, Y-27632]
- cloning efficiency [1]: approximately 27%
- plating efficiency (human ES cell line H1; H1 (p52) on surface modified plates, 10 μM Y-27632 in MEF conditioned media for 48 hours): significantly increased plating efficiency
- readiness for passage 4 days after plating (human ES cell line H1; H1 on surface modified plates, 10 μM Y-27632 or 0.5 ng/ml C3 exotransferase): could be passaged 4 days after plating
- attachment of naïve single cells (human ES cell line H9; 10 μM Y-27632, surface modified plates 3 and 4): improves attachment
- attachment of acclimated single cells (human ES cell line H9; 10 μM Y-27632, surface modified plates 3 or 4): did not improve attachment
- adhesion of H9 cells passaged with TrypLE Express (human ES cell line H9; continuous 10 μM Y-27632, surface modified plates 2, 3, 4 and 13): improved
- attachment of HEK293 cells (HEK293 cells [2]; EMEM with 10% FBS): enhanced attachment
- attachment of HEK293 cells (HEK293 cells [2]; Pro293a-CDM medium): enhanced attachment
- growth of HEK293 cells over 3 passages (HEK293 cells [3]): enhanced
